From patent US20060067981A1, “Contact lens with improved biocidal activity and related methods and materials” (Bausch & Lomb Incorporated, priority 2004, published 2006)
Several values for one entry are separate records, joined by “and”; a condition that tells them apart may be missing. Identical values can stand only once.

Legend:
Format in all cases: physicochemical
[1] = Uptake of domaphen bromide by lens in citrate buffer system
Procedure: Three solutions made according to the formulation of Example 1 were made with a 25 ppm (Solution 10), 50 ppm (Solution 11) and 100 ppm (Solution 12) domaphen bromide concentrations, except the borate buffer system was replaced with an equivalent amount of a citrate buffer system and the water amount was adjusted accordingly. Two 3 ml portions of Solutions 10-12 in solution were placed in six separate vials. A total of six Sureview™ lens (Johnson & Johnson, New Brunswick, N.J.) were placed in the vials—one lens per each vial. The vials remained in the lens for a first 24 hour soaking cycle. After 24 hours, the lenses were removed. The amount of domaphen bromide remaining in each of the 3 ml solutions is measured by ultraviolet visible (UV/VIS) spectrometer analytical method. Inhibition % is calculated to reflect the amount of domaphen bromide that remains in the solution expressed as a percentage of the total amount of domaphen bromide. Inhibition % is recorded in Table 5 corresponding to a soaking time of 24 hours. This completed the first test cycle. The lenses removed during the first soaking cycle were placed in six fresh vials containing two 3 ml portions of solutions 10-12 to commence the second 24 hour soaking cycle. Care was taken to make sure that the solution the lens is soaked in during the second cycle is identical to the solution in the first cycle. Thus, each pair of lenses is soaked in concentrations of Solutions 10-12 identical to the concentration that the lens was soaked in during the first soak cycle. After 24 hours, the lenses are removed. The solutions are tested to determine the concentration domaphen bromide in solution. The inhibition % is calculated and recorded in Table 5 corresponding to 48 hour soak time. The lenses were again soaked for a third and fourth soak cycle. The domaphen bromide inhibition % was recorded after the third and fourth soak cycle and recorded in Table 5 corresponding to the 72 hour and 96 hour soak times, respectively.

[2] = Uptake of domaphen bromide by lens in tris(hydroxymethyl)aminomethane buffer system
Procedure: Three solutions made according to the formulation of Example 1 were made with a 25 ppm (Solution 4), 50 ppm (Solution 5) and 100 ppm (Solution 6) domaphen bromide concentrations, except the borate buffer system was replaced with an equivalent amount of a tris(hydroxymethyl)aminomethane buffer system and the water amount was adjusted accordingly. The term “equivalent amount” means the amount required to adjust the pH to the desired pH as another buffer. Two 3 ml portions of Solutions 4-6 in solution were placed in six separate vials. A total of six Sureview™ lens (Johnson & Johnson, New Brunswick, N.J.) were placed in the vials—one lens per each vial. The vials remained in the lens for a first 24 hour soaking cycle. After 24 hours, the lenses were removed. The amount of domaphen bromide remaining in each of the 3 ml solutions is measured by ultraviolet visible (UV/VIS) spectrometer analytical method. Inhibition % is calculated to reflect the amount of domaphen bromide that remains in the solution expressed as a percentage of the total amount of domaphen bromide. Inhibition % is recorded in Table 3 corresponding to a soaking time of 24 hours. This completed first test cycle. The lenses removed during the first soaking cycle were placed in six fresh vials containing two 3 ml portions of solutions 4-6 to commence the second 24 hour soaking cycle. Care was taken to make sure that the solution the lens is soaked in during the second cycle is identical to the solution in the first cycle. Thus, each pair of lenses is soaked in identical concentrations of Solutions 4-6. After 24 hours, the lenses are removed. The solutions are tested to determine the concentration domaphen bromide in solution. The inhibition % is calculated and recorded in Table 3 corresponding to 48 hour soak time. The lenses were again soaked for a third and fourth soak cycle. The domaphen bromide inhibition % was recorded after the third and fourth soak-cycle and recorded in Table 3 corresponding to the 72 hour and 96 hour soak times, respectively.

[3] = Loading time by soaking commercial contact lenses in 3 ml contact cases; conditions: most of buffer system
Procedure: The loading time for most of buffer system is about 12-24 hours by soaking commercial contact lenses inside the 3 ml contact cases with a certain concentration of domaphen bromide solution.

[4] = Uptake of domaphen bromide by lens in phosphate buffer system; conditions: % remaining in solution; for Inhibition % in 25 ppm Domiphen Bromide: 25 ppm (Solution 7); for Inhibition % in 50 ppm Domiphen Bromide: 50 ppm (Solution 8); for Inhibition % in 100 ppm Domiphen Bromide: 100 ppm (Solution 9)
Procedure: Three solutions made according to the formulation of Example 1 were made with a 25 ppm (Solution 7), 50 ppm (Solution 8) and 100 ppm (Solution 9) domaphen bromide concentrations, except the borate buffer system was replaced with an equivalent amount of a phosphate buffer system and the amount of water was adjusted accordingly. Two 3 ml portions of Solutions 7-9 in solution were placed in six separate vials. A total of six Sureview™ lens (Johnson & Johnson, New Brunswick, N.J.) were placed in the vials—one lens per each vial. The vials remained in the lens for a first 24 hour soaking cycle. After 24 hours, the lenses were removed. The amount of domaphen bromide remaining in each of the 3 ml solutions is measured by ultraviolet visible (UV/VIS) spectrometer analytical method. Inhibition % is calculated to reflect the amount of domaphen bromide that remains in the solution expressed as a percentage of the total amount of domaphen bromide. Inhibition % is recorded in Table 4 corresponding to a soaking time of 24 hours. This completed the first test cycle. The lenses removed during the first soaking cycle were placed in six fresh vials containing two 3 ml portions of solutions 7-9 to commence the second 24 hour soaking cycle. Care was taken to make sure that the solution the lens is soaked in during the second cycle is identical to the solution in the first cycle. Thus, each pair of lenses is soaked in concentrations of Solutions 7-9 identical to the concentration that the lens was soaked in during the first soak cycle. After 24 hours, the lenses are removed. The solutions are tested to determine the concentration domaphen bromide in solution. The inhibition % is calculated and recorded in Table 4 corresponding to 48 hour soak time. The lenses were again soaked for a third and fourth soak cycle. The domaphen bromide inhibition % was recorded after the third and fourth soak-cycle and recorded in Table 4 corresponding to the 72 hour and 96 hour soak times, respectively.

[5] = Uptake of domaphen bromide by lens in borate buffer system; conditions: for Inhibition % in 25 ppm Domiphen Bromide / Inhibition % in 50 ppm Domiphen Bromide / Inhibition % in 100 ppm Domiphen Bromide: Borate buffer, % remaining in solution; for Inhibition % in 25 ppm Domiphen Bromide: 25 ppm (Solution 13); for Inhibition % in 50 ppm Domiphen Bromide: 50 ppm (Solution 14); for Inhibition % in 100 ppm Domiphen Bromide: 100 ppm (Solution 15)
Procedure: Three solutions made according to the formulation of Example 1 were made with a 25 ppm (Solution 13), 50 ppm (Solution 14) and 100 ppm (Solution 15) domaphen bromide concentrations. Two 3 ml portions of Solutions 13-15 in solution were placed in six separate vials. A total of six Sureview™ lens (Johnson & Johnson, New Brunswick, N.J.) were placed in the vials—one lens per each vial. The vials remained in the lens for a first 24 hour soaking cycle. After 24 hours, the lenses were removed. The amount of domaphen bromide remaining in each of the 3 ml solutions is measured by ultraviolet visible (UV/VIS) spectrometer analytical method. Inhibition % is calculated to reflect the amount of domaphen bromide that remains in the solution expressed as a percentage of the total amount of domaphen bromide. Inhibition % is recorded in Table 6 corresponding to a soaking time of 24 hours. This completed the first test cycle. The lenses removed during the first soaking cycle were placed in six fresh vials containing two 3 ml portions of Solutions 13-15 to commence the second 24 hour soaking cycle. Care was taken to make sure that the solution the lens is soaked in during the second cycle is identical to the solution in the first cycle. Thus, each pair of lenses is soaked in concentrations of Solutions 13-15 identical to the concentration that the lens was soaked in during the first soak cycle. After 24 hours, the lenses are removed. The solutions are tested to determine the concentration domaphen bromide in solution. The inhibition % is calculated and recorded in Table 6 corresponding to 48 hour soak time. The lenses were again soaked for a third and fourth soak cycle. The domaphen bromide inhibition % was recorded after the third and fourth soak cycle and recorded in Table 6 corresponding to the 72 hour and 96 hour soak times, respectively.

Domiphen bromide remaining in solution (%) ([1]; 25 ppm (Solution 10), soaking time 24 hours): 63.20% and 75.66%
Domiphen bromide remaining in solution (%) ([1]; 25 ppm (Solution 10), soaking time 48 hours): 71.57% and 73.25%
Domiphen bromide remaining in solution (%) ([1]; 25 ppm (Solution 10), soaking time 72 hours): 64.34% and 76.59%
Domiphen bromide remaining in solution (%) ([1]; 25 ppm (Solution 10), soaking time 96 hours): 59.17% and 64.89%
Domiphen bromide remaining in solution (%) ([1]; 50 ppm (Solution 11), soaking time 24 hours): 76.51% and 80.02%
Domiphen bromide remaining in solution (%) ([1]; 50 ppm (Solution 11), soaking time 48 hours): 78.39% and 72.39%
Domiphen bromide remaining in solution (%) ([1]; 50 ppm (Solution 11), soaking time 72 hours): 67.91% and 77.42%
Domiphen bromide remaining in solution (%) ([1]; 50 ppm (Solution 11), soaking time 96 hours): 59.28% and 69.87%
Domiphen bromide remaining in solution (%) ([1]; 100 ppm (Solution 12), soaking time 24 hours): 75.59% and 77.95%
Domiphen bromide remaining in solution (%) ([1]; 100 ppm (Solution 12), soaking time 48 hours): 79.63% and 70.90%
Domiphen bromide remaining in solution (%) ([1]; 100 ppm (Solution 12), soaking time 72 hours): 71.04% and 81.39%
Domiphen bromide remaining in solution (%) ([1]; 100 ppm (Solution 12), soaking time 96 hours): 62.97% and 74.47%
Domiphen bromide remaining in solution (% of total) ([2]; 25 ppm (Solution 4), soaking time 24 hours): 78.59% and 75.76%
Domiphen bromide remaining in solution (% of total) ([2]; 25 ppm (Solution 4), soaking time 48 hours): 57.91% and 62.72%
Domiphen bromide remaining in solution (% of total) ([2]; 25 ppm (Solution 4), soaking time 72 hours): 59.19% and 53.50%
Domiphen bromide remaining in solution (% of total) ([2]; 25 ppm (Solution 4), soaking time 96 hours): 55.13% and 52.65%
Domiphen bromide remaining in solution (% of total) ([2]; 50 ppm (Solution 5), soaking time 24 hours): 73.59% and 67.65%
Domiphen bromide remaining in solution (% of total) ([2]; 50 ppm (Solution 5), soaking time 48 hours): 68.18% and 66.35%
Domiphen bromide remaining in solution (% of total) ([2]; 50 ppm (Solution 5), soaking time 72 hours): 58.25% and 56.17%
Domiphen bromide remaining in solution (% of total) ([2]; 50 ppm (Solution 5), soaking time 96 hours): 80.84% and 81.31%
Domiphen bromide remaining in solution (% of total) ([2]; 100 ppm (Solution 6), soaking time 24 hours): 68.39% and 63.58%
Domiphen bromide remaining in solution (% of total) ([2]; 100 ppm (Solution 6), soaking time 48 hours): 65.50% and 63.71%
Domiphen bromide remaining in solution (% of total) ([2]; 100 ppm (Solution 6), soaking time 72 hours): 56.54% and 58.19%
Domiphen bromide remaining in solution (% of total) ([2]; 100 ppm (Solution 6), soaking time 96 hours): 53.91% and 59.25%
loading time [3]: 12 to 24 h
Inhibition % in 25 ppm Domiphen Bromide ([4]; soaking time 24 hours): 43.92% and 51.40%
Inhibition % in 25 ppm Domiphen Bromide ([4]; soaking time 48 hours): 50.19% and 51.75%
Inhibition % in 25 ppm Domiphen Bromide ([4]; soaking time 72 hours): 52.34% and 47.54%
Inhibition % in 25 ppm Domiphen Bromide ([4]; soaking time 96 hours): 41.31% and 34.37%
Inhibition % in 50 ppm Domiphen Bromide ([4]; soaking time 24 hours): 47.12% and 49.78%
Inhibition % in 50 ppm Domiphen Bromide ([4]; soaking time 48 hours): 49.51% and 49.86%
Inhibition % in 50 ppm Domiphen Bromide ([4]; soaking time 72 hours): 46.67% and 48.35%
Inhibition % in 50 ppm Domiphen Bromide ([4]; soaking time 96 hours): 34.47% and 37.30%
Inhibition % in 100 ppm Domiphen Bromide ([4]; soaking time 24 hours): 48.87% and 47.95%
Inhibition % in 100 ppm Domiphen Bromide ([4]; soaking time 48 hours): 46.77% and 47.52%
Inhibition % in 100 ppm Domiphen Bromide ([4]; soaking time 72 hours): 43.55% and 45.54%
Inhibition % in 100 ppm Domiphen Bromide ([4]; soaking time 96 hours): 34.67% and 37.15%
Inhibition % in 25 ppm Domiphen Bromide ([5]; soaking time 24 hours): 21.85%
Inhibition % in 25 ppm Domiphen Bromide ([5]; soaking time 48 hours): 36.68% and 35.57%
Inhibition % in 25 ppm Domiphen Bromide ([5]; soaking time 72 hours): 33.41% and 33.18%
Inhibition % in 25 ppm Domiphen Bromide ([5]; soaking time 96 hours): 31.54% and 39.03%
Inhibition % in 50 ppm Domiphen Bromide ([5]; soaking time 24 hours): 29.80% and 29.88%
Inhibition % in 50 ppm Domiphen Bromide ([5]; soaking time 48 hours): 36.31% and 32.62%
Inhibition % in 50 ppm Domiphen Bromide ([5]; soaking time 72 hours): 31.35% and 37.25%
Inhibition % in 50 ppm Domiphen Bromide ([5]; soaking time 96 hours): 28.30% and 37.79%
Inhibition % in 100 ppm Domiphen Bromide ([5]; soaking time 24 hours): 14.68% and 17.15%
Inhibition % in 100 ppm Domiphen Bromide ([5]; soaking time 48 hours): 19.08% and 15.10%
Inhibition % in 100 ppm Domiphen Bromide ([5]; soaking time 72 hours): 12.02% and 18.58%
Inhibition % in 100 ppm Domiphen Bromide ([5]; soaking time 96 hours): 14.11% and 20.21%
loading percentage (100% minus Inhibition%) ([5]; borate buffer, as high as): 70-80%
SMILES: CCCCCCCCCCCC[N+](C)(C)CCOc1ccccc1 [Domiphen Bromide]
